Experimental data: US20260116921A1, “PEPTIDE INHIBITORS OF INTERLEUKIN-23 RECEPTOR AND THEIR USE TO TREAT INFLAMMATORY DISEASES” (priority 2018, published 2026)
Numbered stars: 1 amine (or outer) side, 2 acyl side, 3 side chain; on linkers, the order of the positions; unused ones are H or OH. Bridge positions count the residues as written; N and C are the ends. Square brackets hold non-standard residues; d marks the D form. Peptide text beside a SMILES is read from it. X1 = CCc1cccc2c(C[C@H](N[*:1])C(=O)[*:2])c[nH]c12; Trp(7-Me) = Cc1cccc2c(C[C@H](N)C(=O)O)c[nH]c12; Trp(1-Me) = Cn1cc(C[C@H](N)C(=O)O)c2ccccc21; 2Nal = N[C@@H](Cc1ccc2ccccc2c1)C(=O)O; AEF = NCCOc1ccc(C[C@H](N)C(=O)O)cc1; Cit = NC(=O)NCCC[C@H](N)C(=O)O; Pen = CC(C)(S)[C@H](N)C(=O)O; αMeK = C[C@](N)(CCCCN)C(=O)O; βAla = NCCC(=O)O

Tests used:
IL-23R = target: T1, IL-23R (Homo sapiens, UniProt Q5VWK5); assay: DB cells IL23R pSTAT3 cell assay (pStat3 HTRF); type: cell-based; details: Table E3; DB cells, IL-23 0.5 nM, 30 minutes at 37° C.; read-out: pStat3 HTRF (IC50)
T1 sequence (Q5VWK5 24-629): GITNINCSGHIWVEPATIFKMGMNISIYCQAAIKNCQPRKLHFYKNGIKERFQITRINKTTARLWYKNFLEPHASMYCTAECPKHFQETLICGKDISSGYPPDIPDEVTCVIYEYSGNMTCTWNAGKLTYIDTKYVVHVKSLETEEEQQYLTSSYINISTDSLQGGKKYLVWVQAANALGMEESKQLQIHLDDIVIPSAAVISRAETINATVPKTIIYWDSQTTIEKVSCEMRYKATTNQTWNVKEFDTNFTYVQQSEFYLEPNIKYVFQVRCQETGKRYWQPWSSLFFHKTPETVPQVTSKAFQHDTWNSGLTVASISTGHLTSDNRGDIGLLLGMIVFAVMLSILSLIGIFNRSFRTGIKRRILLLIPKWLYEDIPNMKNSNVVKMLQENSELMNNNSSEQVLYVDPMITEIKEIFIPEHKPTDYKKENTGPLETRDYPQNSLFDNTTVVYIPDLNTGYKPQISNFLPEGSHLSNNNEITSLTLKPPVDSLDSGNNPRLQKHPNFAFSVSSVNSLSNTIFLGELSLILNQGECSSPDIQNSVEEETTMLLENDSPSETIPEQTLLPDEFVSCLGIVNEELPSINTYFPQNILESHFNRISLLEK
Summary of the method: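 DB cells (5×10E5/well, RPMI-1640 + 10% FBS) stimulated with 0.5 nM final IL-23 plus serially diluted test peptides for 30 min at 37 °C, 5% CO2. Phospho-STAT3 (Tyr705) in lysates measured by HTRF using a two-plate protocol.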

in vitro [1] = type: in vitro ADME; parameters: half-life: dose or concentration left out as unconfirmed; details: simulated intestinal fluid (SIF) with pancreatin, pH 6.8, 37° C., § matrix is 100 fold dilution of standard SIF concentration, read-out: SIF t½ (converted)
in vitro [2] = details: human, 20% fecal homogenate (supernatant), anaerobic, pH 6.8
in vitro [3] = details: cynomolgus monkey, 20% fecal homogenate (supernatant), anaerobic, pH 6.8
Experimental: Fecal homogenate (20%) was prepared by adding 4 mL of growth medium (1 liter contains 2 g peptone water powder, 2 g yeast extract, 0.1 g NaCl, 0.04 g KH2PO4, 0.01 g CaCl2·6H2O, 0.01 g MgSO4·7H2O, 2 mL Tween 80, 0.5 g bile salts, 0.5 g L-cysteine HCl, 2 g NaHCO3, and 10 μL Vitamin K, pH adjusted to 6.8, and sterilized by filtration through a 0.22 μm filter) to every gram of feces (pooled freshly collected human or cynomolgus monkey feces). The suspension was vortexed to break up large clumps, and homogenized using a bead mill homogenizer. Centrifuged the homogenate at 2800×g for 15 min. The supernatant is taken out and used for incubations. DMSO stocks (10 mM) were first prepared for the test compounds. Incubations were performed in an anaerobic chamber conditioned at 37° C. Aliquots of the DMSO solutions were dosed into 1.0 mL aliquots of 20% fecal homogenate, which are pre-warmed to 37° C. The final test compound concentration was 20 μM. At each timepoint (0, 20 min, 1, 3, 6, or 24 hours), 100 μL aliquot of each incubation mixture is taken out and added to separate tubes containing 300 μL of 50% acetonitrile/50% methanol and an internal standard to terminate the reaction. Samples were taken out of the anaerobic chamber and stored at 4° C. until the end of the experiment. After the final timepoint is sampled, the tubes were mixed and then centrifuged at 3,000 rpm for 10 minutes. Aliquots of the supernatant were removed, diluted 1:1 into distilled water containing 0.1% formic acid, and analyzed by LC/MS/MS. Percent remaining at each timepoint was calculated based on the peak area response ratio of test to compound to internal standard. Time 0 was set to 100%, and all later timepoints were calculated relative to time 0. Half-lives were calculated by fitting to a first-order exponential decay equation using Graphpad or Excel.

in vitro [4] = details: both, SD, rat, plasma (EDTA)
Experimental: Peptides of interest (20 μM) were incubated with pre-warmed rat plasma (SD rat, mixed gender pooled, EDTA, filtered through 0.22 μm, BioreclamationIVT) at 37° C. […] Quenched samples were stored at 4° C. until the end of the experiment and centrifuged at 4,000 rpm for 10 minutes. The supernatant were diluted 1:1 with deionized water and analyzed using LC-MS. Percentage remaining at each time point was calculated based on the peak area ratio (analyte over internal standard) relative to the initial level at time zero. Half-lives were calculated by fitting to a first-order exponential decay equation using GraphPad.

SMILES | IC50 (IL-23R) [nM] | half-life (in vitro [1]) [h] | half-life at 20 μM (in vitro [2]) [h] | half-life at 20 μM (in vitro [3]) [h] | half-life at 20 μM (in vitro [4]) [h]
CC(=O)NCCCC[C@H](NC(=O)[C@](C)(CCCCN)NC(=O)[C@H](Cc1ccc2ccccc2c1)NC(=O)[C@H](Cc1ccc(OCCN)cc1)NC(=O)[C@H]1NC(=O)[C@H](CCCNC(N)=O)NC(=O)[C@H](Cc2c[nH]c3c(C)cccc23)NC(=O)[C@H]([C@@H](C)O)NC(=O)[C@H](CC(N)=O)NC(=O)[C@@H](NC(C)=O)C(C)(C)SSC1(C)C)C(=O)N[C@@H](CC(N)=O)C(=O)N[C@H](Cc1ccccc1)C(N)=O [compound 257] (Ac-[Pen]NT[Trp(7-Me)][Cit][Pen][AEF][2Nal][αMeK]K(Ac)N[dF]-NH2; disulfide 1-6) | 1 to 10 | 5 | > 24 | 23 | > 24
CC(=O)NCCCC[C@@H]1NC(=O)[C@H](Cc2c[nH]c3c(C)cccc23)NC(=O)[C@H]([C@@H](C)O)NC(=O)[C@H](CC(N)=O)NC(=O)[C@@H](NC(C)=O)C(C)(C)SSC(C)(C)[C@@H](C(=O)N[C@@H](Cc2ccc(OCCN)cc2)C(=O)N[C@@H](Cc2ccc3ccccc3c2)C(=O)N[C@@](C)(CCCCN)C(=O)N[C@@H](CCCCNC(C)=O)C(=O)N[C@@H](CC(N)=O)C(=O)N[C@@H](CCCNC(=N)N)C(N)=O)NC1=O [compound 243] | 1 to 10 | < 1 | 1 | – | 21
CC(=O)NCCCC[C@@H]1NC(=O)[C@H](Cc2c[nH]c3c(C)cccc23)NC(=O)[C@H]([C@@H](C)O)NC(=O)[C@H](CC(N)=O)NC(=O)[C@@H](NC(C)=O)C(C)(C)SSC(C)(C)[C@@H](C(=O)N[C@@H](Cc2ccc(OCCN)cc2)C(=O)N[C@@H](Cc2ccc3ccccc3c2)C(=O)N[C@@](C)(CCCCN)C(=O)N[C@@H](CCCCNC(C)=O)C(=O)N[C@@H](CC(N)=O)C(=O)N[C@@H](CC(C)C)C(N)=O)NC1=O [compound 244] | 1 to 10 | 1 | 19 | – | > 24
CC(=O)NCCCC[C@H](NC(=O)C1(NC(=O)[C@H](Cc2ccc3ccccc3c2)NC(=O)[C@H](Cc2ccc(OCCN)cc2)NC(=O)[C@H]2NC(=O)[C@H](CCC(N)=O)NC(=O)[C@H](Cc3c[nH]c4c(C)cccc34)NC(=O)[C@H]([C@@H](C)O)NC(=O)[C@H](CC(N)=O)NC(=O)[C@@H](NC(C)=O)C(C)(C)SSC2(C)C)CCCCC1)C(=O)N[C@@H](CC(N)=O)C(=O)NCCC(N)=O [compound 274] | < 1 | 5 | > 24 | 4 | 5
CC(=O)NCCCC[C@H](NC(=O)[C@](C)(CCCCN)NC(=O)[C@H](Cc1ccc2ccccc2c1)NC(=O)[C@H](Cc1ccc(OCCN)cc1)NC(=O)[C@H]1NC(=O)[C@H](CCCNC(N)=O)NC(=O)[C@H](Cc2cn(C)c3ccccc23)NC(=O)[C@H]([C@@H](C)O)NC(=O)[C@H](CC(N)=O)NC(=O)[C@@H](NC(C)=O)C(C)(C)SSC1(C)C)C(=O)NCCC(=O)NCCC(N)=O [compound 280] (Ac-[Pen]NT[Trp(1-Me)][Cit][Pen][AEF][2Nal][αMeK]K(Ac)[βAla][βAla]-NH2; disulfide 1-6) | 10 to 100 | 8 | > 24 | > 24 | > 24
CC[C@H](C)[C@H](NC(=O)[C@H](CC(N)=O)NC(=O)[C@H](CCCCNC(C)=O)NC(=O)[C@](C)(CCCCN)NC(=O)[C@H](Cc1ccc2ccccc2c1)NC(=O)[C@H](Cc1ccc(OCCN)cc1)NC(=O)[C@H]1NC(=O)[C@H](CCCCNC(C)=O)NC(=O)[C@H](Cc2c[nH]c3c(C)cccc23)NC(=O)[C@H]([C@@H](C)O)NC(=O)[C@H](CC(N)=O)NC(=O)[C@@H](NC(C)=O)C(C)(C)SSC1(C)C)C(N)=O [compound 255] | 1 to 10 | 19 | > 24 | 15 | > 24
CCc1cccc2c(C[C@@H]3NC(=O)[C@H]([C@@H](C)O)NC(=O)[C@H](CC(N)=O)NC(=O)[C@@H](NC(C)=O)C(C)(C)SSC(C)(C)[C@@H](C(=O)N[C@@H](Cc4ccc(OCCN)cc4)C(=O)N[C@@H](Cc4ccc5ccccc5c4)C(=O)N[C@@](C)(CCCCN)C(=O)N[C@@H](CCCCNC(C)=O)C(=O)N[C@@H](CC(N)=O)C(=O)N[C@H](CC(C)C)C(N)=O)NC(=O)[C@H](CCCCNC(C)=O)NC3=O)c[nH]c12 [compound 284] (Ac-[Pen]NT[X1]K(Ac)[Pen][AEF][2Nal][αMeK]K(Ac)N[dL]-NH2; disulfide 1-6) | < 1 | 2 | > 24 | > 24 | > 24
COc1cccc2c(C[C@@H]3NC(=O)[C@H]([C@@H](C)O)NC(=O)[C@H](CC(N)=O)NC(=O)[C@@H](NC(C)=O)C(C)(C)SSC(C)(C)[C@@H](C(=O)N[C@@H](Cc4ccc(OCCN)cc4)C(=O)N[C@@H](Cc4ccc5ccccc5c4)C(=O)N[C@@](C)(CCCCN)C(=O)N[C@@H](CCCCNC(C)=O)C(=O)N[C@@H](CC(N)=O)C(=O)N[C@H](CC(C)C)C(N)=O)NC(=O)[C@H](CCCCNC(C)=O)NC3=O)c[nH]c12 [compound 288] | 1 to 10 | 12 | > 24 | > 24 | > 24
CC(=O)NCCCC[C@H](NC(=O)[C@](C)(CCCCN)NC(=O)[C@H](Cc1ccc2ccccc2c1)NC(=O)[C@H](Cc1ccc(OCCN)cc1)NC(=O)[C@H]1NC(=O)[C@H](CCCNC(N)=O)NC(=O)[C@H](Cc2c[nH]c3c(C)cccc23)NC(=O)[C@H]([C@@H](C)O)NC(=O)[C@H](CC(N)=O)NC(=O)[C@@H](NC(C)=O)C(C)(C)SSC1(C)C)C(=O)NCCC(=O)NCCC(N)=O [compound 268] (Ac-[Pen]NT[Trp(7-Me)][Cit][Pen][AEF][2Nal][αMeK]K(Ac)[βAla][βAla]-NH2; disulfide 1-6) | 1 to 10 | 15 | > 24 | > 24 | > 24
CC(=O)N[C@H]1CCSC[C@@H](C(=O)N[C@@H](Cc2ccc(OCCN)cc2)C(=O)N[C@@H](Cc2ccc3ccccc3c2)C(=O)NC2(C(=O)N[C@@H](CCC(=O)O)C(=O)N[C@@H](CC(N)=O)C(=O)NCCC(N)=O)CCOCC2)NC(=O)[C@H](CCC(N)=O)NC(=O)[C@H](Cc2c[nH]c3c(C)cccc23)NC(=O)[C@H]([C@@H](C)O)NC(=O)[C@H](CCC(N)=O)NC1=O [compound 204] | 1 to 10 | 19 | 1 | 5 | –
CC(=O)NCCCC[C@@H]1NC(=O)[C@H](Cc2c[nH]c3c(C)cccc23)NC(=O)[C@H]([C@@H](C)O)NC(=O)[C@H](CC(N)=O)NC(=O)[C@@H](NC(C)=O)C(C)(C)SSC(C)(C)[C@@H](C(=O)N[C@@H](Cc2ccc(OCCN)cc2)C(=O)N[C@@H](Cc2ccc3ccccc3c2)C(=O)N[C@@](C)(CCCCN)C(=O)N[C@@H](CCCCNC(C)=O)C(=O)N[C@@H](CC(N)=O)C(=O)N[C@@H](CCCNC(N)=O)C(N)=O)NC1=O [compound 249] | < 1 | 7 | > 24 | 5 | > 24
CC(=O)NCCCC[C@@H]1NC(=O)[C@H](Cc2c[nH]c3c(C)cccc23)NC(=O)[C@H]([C@@H](C)O)NC(=O)[C@H](CC(N)=O)NC(=O)[C@@H](NC(C)=O)C(C)(C)SSC(C)(C)[C@@H](C(=O)N[C@@H](Cc2ccc(OCCN)cc2)C(=O)N[C@@H](Cc2ccc3ccccc3c2)C(=O)N[C@@](C)(CCCCN)C(=O)N[C@@H](CCCCNC(C)=O)C(=O)N[C@@H](CC(N)=O)C(=O)N[C@@H](C(N)=O)C(C)C)NC1=O [compound 251] | < 1 | 22 | > 24 | > 24 | > 24
CC(=O)NCCCC[C@@H]1NC(=O)[C@H](Cc2c[nH]c3c(C)cccc23)NC(=O)[C@H]([C@@H](C)O)NC(=O)[C@H](CC(N)=O)NC(=O)[C@@H](NC(C)=O)C(C)(C)SSC(C)(C)[C@@H](C(=O)N[C@@H](Cc2ccc(OCCN)cc2)C(=O)N[C@@H](Cc2ccc3ccccc3c2)C(=O)N[C@@](C)(CCCCN)C(=O)N[C@@H](CCCCNC(C)=O)C(=O)N[C@@H](CC(N)=O)C(=O)N[C@@H](Cc2c[nH]cn2)C(N)=O)NC1=O [compound 248] | – | 3 | > 24 | 6 | > 24
